Data: ChEMBL document CHEMBL1151840, “Synthetic oligoribonucleotides containing arabinonucleotides act as agonists of TLR7 and 8” (Bioorg Med Chem Lett, 2009)
Active and inactive are the calls of the source. No cut-off for these calls is given here.

How the values were obtained:
PBMC [1] = experiment: Stimulation of immune response in human PBMC assessed as induction of IL1-beta production at 150 ug/ml after 24 hrs; type: functional, cell-based
PBMC [2] = experiment: Stimulation of immune response in human PBMC assessed as induction of IFNalpha production at 150 ug/ml after 24 hrs; type: functional, cell-based
Homo sapiens [3] = organism: Homo sapiens; experiment: Stimulation of immune response in human pDC assessed as induction of IFNalpha production at 150 ug/ml after 24 hrs; type: functional
PBMC [4] = experiment: Stimulation of immune response in human PBMC assessed as induction of TNFalpha production at 150 ug/ml after 24 hrs; type: functional, cell-based
PBMC [5] = experiment: Stimulation of immune response in human PBMC assessed as induction of MCP1 production at 150 ug/ml after 24 hrs; type: functional, cell-based
PBMC [6] = experiment: Stimulation of immune response in human PBMC assessed as induction of IL2R level at 150 ug/ml after 24 hrs; type: functional, cell-based
Homo sapiens [7] = organism: Homo sapiens; experiment: Stimulation of immune response in human pDC assessed as induction of TNFalpha production at 150 ug/ml after 24 hrs; type: functional
Mus musculus = experiment: Stimulation of immune response in C57BL/6 mouse assessed as induction of serum IL12 production at 50 mg/kg, sc after 2 hrs by luminex multiplex assay; type: functional, organism-based; design: dose 50 mg/kg
PBMC [8] = experiment: Stimulation of immune response in human PBMC assessed as induction of MIP1alpha production at 150 ug/ml after 24 hrs; type: functional, cell-based
Homo sapiens [9] = organism: Homo sapiens; experiment: Stimulation of immune response in human pDC assessed as induction of MIP1alpha production at 150 ug/ml after 24 hrs; type: functional
PBMC [10] = experiment: Stimulation of immune response in human PBMC assessed as induction of IL12 production at 150 ug/ml after 24 hrs; type: functional, cell-based
PBMC [11] = experiment: Stimulation of immune response in human PBMC assessed as induction of IFN-gamma production at 150 ug/ml after 24 hrs; type: functional, cell-based
Homo sapiens [12] = organism: Homo sapiens; experiment: Stimulation of immune response in human pDC assessed as induction of MIP1beta production at 150 ug/ml after 24 hrs; type: functional
PBMC [13] = experiment: Stimulation of immune response in human PBMC assessed as induction of IL10 production at 150 ug/ml after 24 hrs; type: functional, cell-based
[14] = biological target: T1, Toll-like receptor 8 (Homo sapiens) (UniProt Q9NR97); experiment: Agonist activity at human TLR8 expressed in HEK293XL cells assessed as NF-kappaB activation after 18 hrs; type: functional, cell-based
T1 sequence (whole entry): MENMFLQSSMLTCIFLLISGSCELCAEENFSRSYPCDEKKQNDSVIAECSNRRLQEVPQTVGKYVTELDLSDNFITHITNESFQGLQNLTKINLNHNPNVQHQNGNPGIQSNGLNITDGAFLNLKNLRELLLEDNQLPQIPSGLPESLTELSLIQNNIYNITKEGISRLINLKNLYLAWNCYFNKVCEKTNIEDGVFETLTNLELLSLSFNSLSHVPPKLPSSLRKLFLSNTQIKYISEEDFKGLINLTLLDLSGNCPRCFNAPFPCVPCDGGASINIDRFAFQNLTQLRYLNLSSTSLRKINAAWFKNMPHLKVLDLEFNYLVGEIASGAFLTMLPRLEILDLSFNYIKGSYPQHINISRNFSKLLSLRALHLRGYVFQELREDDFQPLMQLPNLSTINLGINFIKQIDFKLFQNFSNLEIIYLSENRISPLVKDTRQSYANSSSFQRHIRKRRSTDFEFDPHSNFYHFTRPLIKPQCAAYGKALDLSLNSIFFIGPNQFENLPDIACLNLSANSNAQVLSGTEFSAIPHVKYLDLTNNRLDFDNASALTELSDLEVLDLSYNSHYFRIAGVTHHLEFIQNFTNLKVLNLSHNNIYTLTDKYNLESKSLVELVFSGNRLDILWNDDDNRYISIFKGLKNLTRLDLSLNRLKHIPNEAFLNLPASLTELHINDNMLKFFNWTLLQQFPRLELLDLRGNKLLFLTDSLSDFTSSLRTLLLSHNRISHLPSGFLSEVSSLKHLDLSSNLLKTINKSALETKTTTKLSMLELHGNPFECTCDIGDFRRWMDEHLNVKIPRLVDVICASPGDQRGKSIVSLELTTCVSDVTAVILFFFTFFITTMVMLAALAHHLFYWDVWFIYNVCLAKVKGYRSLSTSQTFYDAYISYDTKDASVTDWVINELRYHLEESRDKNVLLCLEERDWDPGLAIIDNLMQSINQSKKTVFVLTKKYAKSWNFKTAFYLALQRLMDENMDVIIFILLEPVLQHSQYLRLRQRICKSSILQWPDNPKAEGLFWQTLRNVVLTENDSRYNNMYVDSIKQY

PBMC [15] = experiment: Stimulation of immune response in human PBMC assessed as induction of MIP1beta production at 150 ug/ml after 24 hrs; type: functional, cell-based
Homo sapiens [16] = organism: Homo sapiens; experiment: Stimulation of immune response in human pDC assessed as induction of IFN-gamma production at 150 ug/ml after 24 hrs; type: functional
PBMC [17] = experiment: Stimulation of immune response in human PBMC assessed as induction of RANTES production at 150 ug/ml after 24 hrs; type: functional, cell-based
Homo sapiens [18] = organism: Homo sapiens; experiment: Stimulation of immune response in human pDC assessed as induction of IL12 production at 150 ug/ml after 24 hrs; type: functional
PBMC [19] = experiment: Stimulation of immune response in human PBMC assessed as induction of IL8 production at 150 ug/ml after 24 hrs; type: functional, cell-based
[20] = biological target: T2, Toll-like receptor 7 (Homo sapiens) (UniProt Q9NYK1); experiment: Agonist activity at human TLR7 expressed in HEK293XL cells assessed as NF-kappaB activation at 300 ug/ml after 18 hrs; type: functional, cell-based
T2 sequence (whole entry): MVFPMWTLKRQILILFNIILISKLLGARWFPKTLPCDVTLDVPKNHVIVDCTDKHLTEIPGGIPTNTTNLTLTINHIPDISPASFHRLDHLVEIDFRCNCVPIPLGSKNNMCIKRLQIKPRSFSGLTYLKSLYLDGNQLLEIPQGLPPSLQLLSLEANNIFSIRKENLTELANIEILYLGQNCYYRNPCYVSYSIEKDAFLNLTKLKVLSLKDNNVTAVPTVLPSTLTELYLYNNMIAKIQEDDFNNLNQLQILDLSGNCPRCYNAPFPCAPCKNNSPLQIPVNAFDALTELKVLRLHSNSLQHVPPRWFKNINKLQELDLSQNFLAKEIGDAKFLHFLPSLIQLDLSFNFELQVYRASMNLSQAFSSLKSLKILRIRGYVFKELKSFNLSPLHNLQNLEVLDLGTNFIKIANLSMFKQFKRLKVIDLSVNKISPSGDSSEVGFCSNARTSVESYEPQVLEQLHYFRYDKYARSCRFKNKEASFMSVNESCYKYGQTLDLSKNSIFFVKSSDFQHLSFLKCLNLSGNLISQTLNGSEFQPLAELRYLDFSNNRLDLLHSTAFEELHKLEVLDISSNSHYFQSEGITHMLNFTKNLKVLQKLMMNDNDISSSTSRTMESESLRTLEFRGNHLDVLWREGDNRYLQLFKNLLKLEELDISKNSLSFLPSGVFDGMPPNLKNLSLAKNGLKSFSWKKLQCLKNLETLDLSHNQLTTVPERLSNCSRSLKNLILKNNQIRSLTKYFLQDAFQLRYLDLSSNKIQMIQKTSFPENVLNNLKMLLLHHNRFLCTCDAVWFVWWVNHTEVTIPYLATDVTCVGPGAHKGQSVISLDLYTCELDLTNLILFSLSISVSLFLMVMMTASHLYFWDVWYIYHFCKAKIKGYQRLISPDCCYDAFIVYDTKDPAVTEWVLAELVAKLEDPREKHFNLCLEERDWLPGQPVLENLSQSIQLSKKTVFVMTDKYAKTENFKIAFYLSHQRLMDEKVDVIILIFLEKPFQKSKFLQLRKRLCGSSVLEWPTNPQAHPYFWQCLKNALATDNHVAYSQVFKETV

Activity [14]: Dose-dependent effect | Activity [20]: inactive
Compound: Nc1ccn([C@@H]2O[C@H](COP(=O)(S)O[C@H]3[C@@H](O)[C@H](n4cnc5c(N)ncnc54)O[C@@H]3COP(=O)(S)O[C@H]3[C@@H](O)[C@H](n4cnc5c(=O)[nH]c(N)nc54)O[C@@H]3COP(=O)(S)O[C@H]3[C@@H](O)[C@H](n4ccc(=O)[nH]c4=O)O[C@@H]3COP(=O)(S)O[C@H]3[C@@H](O)[C@H](n4cnc5c(=O)[nH]c(N)nc54)O[C@@H]3COP(=O)(S)O[C@H]3[C@@H](O)[C@H](n4ccc(=O)[nH]c4=O)O[C@@H]3COP(=O)(S)O[C@H]3[C@@H](O)[C@H](n4cnc5c(=O)[nH]c(N)nc54)O[C@@H]3COP(=O)(S)O[C@H]3[C@@H](O)[C@H](n4ccc(=O)[nH]c4=O)O[C@@H]3COP(=O)(S)O[C@H]3[C@@H](O)[C@H](n4ccc(=O)[nH]c4=O)O[C@@H]3COP(=O)(S)O[C@H]3[C@@H](O)[C@H](n4cnc5c(=O)[nH]c(N)nc54)O[C@@H]3COP(=O)(S)O[C@H]3[C@@H](O)[C@H](n4ccc(=O)[nH]c4=O)O[C@H]3CO)[C@@H](OP(=O)(S)OCC(O)COP(=O)(S)O[C@H]3[C@@H](O)[C@H](n4ccc(N)nc4=O)O[C@@H]3COP(=O)(S)O[C@H]3[C@@H](O)[C@H](n4cnc5c(N)ncnc54)O[C@@H]3COP(=O)(S)O[C@H]3[C@@H](O)[C@H](n4cnc5c(=O)[nH]c(N)nc54)O[C@@H]3COP(=O)(S)O[C@H]3[C@@H](O)[C@H](n4ccc(=O)[nH]c4=O)O[C@@H]3COP(=O)(S)O[C@H]3[C@@H](O)[C@H](n4cnc5c(=O)[nH]c(N)nc54)O[C@@H]3COP(=O)(S)O[C@H]3[C@@H](O)[C@H](n4ccc(=O)[nH]c4=O)O[C@@H]3COP(=O)(S)O[C@H]3[C@@H](O)[C@H](n4cnc5c(=O)[nH]c(N)nc54)O[C@@H]3COP(=O)(S)O[C@H]3[C@@H](O)[C@H](n4ccc(=O)[nH]c4=O)O[C@@H]3COP(=O)(S)O[C@H]3[C@@H](O)[C@H](n4ccc(=O)[nH]c4=O)O[C@@H]3COP(=O)(S)O[C@H]3[C@@H](O)[C@H](n4cnc5c(=O)[nH]c(N)nc54)O[C@@H]3COP(=O)(S)O[C@H]3[C@@H](O)[C@H](n4ccc(=O)[nH]c4=O)O[C@@H]3CO)[C@H]2O)c(=O)n1 (stereo in doubt; 6)
Activity (PBMC [1]): Active | Activity (PBMC [2]): Active | Activity (Homo sapiens [3]): inactive | Activity (PBMC [4]): Active | Activity (PBMC [5]): Active | Activity (PBMC [6]): Active | Activity (Homo sapiens [7]): Active | Activity (Mus musculus): inactive | Activity (PBMC [8]): Active | Activity (Homo sapiens [9]): Active | Activity (PBMC [10]): Active | Activity (PBMC [11]): Active | Activity (Homo sapiens [12]): Active | Activity (PBMC [13]): Active | Activity (PBMC [15]): Active | Activity (Homo sapiens [16]): Active | Activity (PBMC [17]): Active | Activity (Homo sapiens [18]): Active | Activity (PBMC [19]): Active
